Source: patent US12246079B2, “Bisacurone composition and method of skin whitening” (Vidya Herbs, Inc., priority 2019, dated 2025)

System: B16F10 murine melanoma cells
Assay: Melanin content in α-MSH-stimulated B16F10 cells
Assay type: cell-based
Settings: 400 μg, vs α-MSH alone treated B16F10 cells
Procedure: B16F10 cells (obtained from National Centre for Cell Sciences (NCCS), Pune, India) were cultured in Dulbecco's Modified Eagle's Medium (DMEM; Sigma Aldrich Co, St Louis, USA) with 10% fetal bovine serum (FBS) and penicillin/streptomycin (100 IU.50 Pg ml-1) in a humidified atmosphere of 5% CO2 at 37° C. The cells were cultured in 6-well plates for melanin quantification and enzyme activity assays.
Determination of melanin content of cells was done using a modification of the method of Bilodeau et al (Bilodeau et al 2001). In the present study, the amount of melanin was used as an index of melanogenesis. B16 F10 cells (5×10^4) were transferred to 24-well dishes and incubated in the presence or absence of 100 nM α-MSH. Cells were then incubated for 24 h with different concentration of the composition. After washing twice with PBS, samples were dissolved in 100 μl of 1N NaOH. The samples were then incubated at 60° C. for 1 h and mixed to solubilize the melanin. Absorbance at 405 nm was compared with a standard curve of synthetic melanin.
In order to assess the anti-melanogenesis activity of the composition, the melanin content was measured in both α-MSH-untreated and α-MSH-treated B16F10 cells. The cells were treated with/without α-MSH, followed by treatment with the composition at doses of 100, 200 and 400 μg/Ml (FIG. 4A).

OC[C@H]1O[C@@H](Oc2ccc(O)cc2)[C@H](O)[C@@H](O)[C@@H]1O [arbutin]
decrease of melanin content: 35.96%
